The source of these data is patent US8889671B2, “Compounds and methods for treating bacterial infections” (AstraZeneca AB, priority 2013, dated 2014).

One assay concerns Staphylococcus aureus. The assay can be described thus: Susceptibility testing (MIC) Assay 1, broth microdilution. Type of assay: cell-based.
In a further assay the test system is Streptococcus pneumoniae. The assay is described as above. Type of assay: cell-based.
The test system of the next assay is Streptococcus pyogenes. The description is as above. The class given is cell-based. Conditions: in vivo strain, read-out: Spy MIC.
Another assay relates to Escherichia coli. The assay can be described thus: Susceptibility testing (MIC) Assay 2, broth microdilution. The class given is cell-based.
In the next assay the test system is Haemophilus influenzae. The description is as above. The class given is cell-based.
The next assay deals with Klebsiella pneumoniae. Described as above. The class given is cell-based.
The next assay concerns Pseudomonas aeruginosa. The assay is described as above. Type of assay: cell-based. The following applies: for MIC: PAO1, read-out: Pae MIC.
In assay [1] the target is Escherichia coli DNA gyrase A/B tetramer (Escherichia coli (strain K12), UniProt P0AES4+P0AES6). The assay can be described thus: DNA gyrase supercoiling activity fluorescence polarisation assay. The class given is biochemical. Conditions: Eco Gyr FP Mean IC50, E. coli DNA gyrase supercoiling, 0.3 mM ATP. The gist of the method: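 Relaxed triplex-forming plasmid (130 micrograms/mL) supercoiled by 5 nM gyrase A/B tetramer in Tris-HCl pH 7.5 buffer with 4 mM MgCl2 and 0.3 mM ATP, ~30 min, ambient temperature. Quenched with 5′-BODIPY-FL triplex probe at pH 3.5; fluorescence anisotropy read after 60 min. IC50 by nonlinear regression against two control reactions.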

[2] abbreviates: Staphylococcus aureus, in vivo strain, MRQR, read-out: Sau(e) MIC.
Setting [3] is: Staphylococcus aureus, serum, read-out: Sau(f) MIC.
Where [4] appears, read: in vivo strain (footnote b), read-out: Spn(b) MIC.
The mark [5] stands for this setting: in vivo strain (footnote c), read-out: Spn(c) MIC.
[6] abbreviates: clinical isolate, mucoid, read-out: Kpn MIC.
Setting [7] is: Staphylococcus aureus, Staphylococcus aureus in vivo strain, MSQS, read-out: Sau(d) MIC.
The mark [8] stands for this setting: Streptococcus pyogenes, Streptococcus pyrgenes.
The mark [9] stands for this setting: ATCC51907, Haemophilus influenzae, ATCC 51907, in vivo strain, read-out: Hin MIC.

Like-named read-outs stand apart in the source and are kept apart here.

As to `COC[C@H]1COC(=O)N1c1noc2c(F)c3c(cc12)CC1(C(=O)NC(=O)NC1=O)[C@H]1[C@H](C)O[C@H](C)CN31` (single isomer, unassigned) [Example 67], the MIC in the assay with Staphylococcus aureus (Staphylococcus aureus in vivo strain, MSQS, read-out: Sau(d) MIC) is given as 0.28 µM; in the assay with Staphylococcus aureus (setting [2]), 0.55 µM; in the assay with Staphylococcus aureus (setting [3]), 0.55 µM; in the assay with Streptococcus pneumoniae (setting [4]), 0.4 µM; in the assay on Streptococcus pneumoniae (setting [5]), 0.55 µM; in the assay on Streptococcus pyogenes (Streptococcus pyrgenes), 0.28 µM. In addition, the MIC in the assay on Escherichia coli (K12, read-out: Eco MIC) is reported as 25 µM; in the assay with Haemophilus influenzae (ATCC 51907, in vivo strain, read-out: Hin MIC), 0.55 µM; in the assay on Klebsiella pneumoniae (setting [6]), greater than 200 µM. In addition, the “Pae MIC” value with Pseudomonas aeruginosa (PAO1) is greater than 200 µM. The molecule also came in with a concentration for half-maximal inhibition (IC50) in assay [1] of 330 nM.
Regarding `C[C@@H]1CN2c3c(cc4c(N5C(=O)O[C@H](C)[C@@H]5CF)noc4c3F)CC3(C(=O)NC(=O)NC3=O)[C@H]2[C@H](C)O1` [Example 78, (2R,4S,4aS)-11-Fluoro-8-((4R,5R)-4-(fluoromethyl)-5-methyl-2-oxooxazolidin-3-yl)-2,4-dimethyl-2,4,4a,6-tetrahydro-1H,1′H-spiro[isoxazolo[4,5-g][1,4]oxazino[4,3-a]quinoline-5,5′-pyrimidine]-2′,4′,6′(3′H)-trione], the MIC was 1 µg/mL with Staphylococcus aureus (Staphylococcus aureus, ATCC29213, Staphylococcus aureus, in vivo strain, ATCC 29213, read-out: Sau(d) MIC); 1 µg/mL in the assay on Staphylococcus aureus (Staphylococcus aureus, MRSA, Staphylococcus aureus, in vivo strain, MRSA, read-out: Sau(f) MIC); 2 µg/mL in the assay with Staphylococcus aureus (setting [2]); 2 µg/mL in the assay with Streptococcus pneumoniae (ATCC49619, Streptococcus pneumoniae, ATCC 49619, read-out: Spn(c) MIC); 2 µg/mL with Streptococcus pneumoniae (in vivo strain, read-out: Spn(b) MIC); 1 µg/mL in the assay with Streptococcus pyogenes (Streptococcus pyogenes, Streptococcus pyrogenes). Further, the MIC in the assay with Escherichia coli (ATCC25922, Escherichia coli, in vivo strain, ATCC 25922, read-out: Eco(b) MIC) was 16 µg/mL; with Escherichia coli (ATCC35218, Escherichia coli, ATCC 35218, read-out: Eco(c) MIC) it was 32 µg/mL; in the assay with Haemophilus influenzae (ATCC49247, Haemophilus influenzae, ATCC 49247, read-out: Hin MIC), 2 µg/mL; in the assay on Klebsiella pneumoniae (ATCC700603, ATCC 700603, read-out: Kpn(e) MIC), greater than 64 µg/mL; in the assay on Klebsiella pneumoniae (clinical isolate, mucoid, read-out: Kpn(d) MIC) it was greater than 64 µg/mL; with Pseudomonas aeruginosa (Pseudomonoas aeruginosa) it was greater than 64 µg/mL. The same molecule displayed a half-inhibitory concentration (IC50) in assay [1] of 440 nM.
`C[C@@H]1CN2c3c(cc4c(N5CCOC5=O)noc4c3F)CC3(C(=O)NC(=O)NC3=O)[C@H]2[C@H](C)O1` [Example 1, (2R,4S,4aS)-11-Fluoro-2,4-dimethyl-8-(2-oxo-1,3-oxazolidin-3-yl)-1,2,4,4a-tetrahydro-2′H,6H-spiro[1,4-oxazino[4,3-a][1,2]oxazolo[4,5-g]quinoline-5,5′-pyrimidine]-2′,4′,6′(1′H,3′H)-trione]: the MIC in the assay with Staphylococcus aureus (setting [7]) stood at 0.39 µM; with Staphylococcus aureus (setting [2]) it was 3.1 µM; with Staphylococcus aureus (setting [3]) it was 0.78 µM; in the assay with Streptococcus pneumoniae (setting [4]) it was 0.78 µM; in the assay with Streptococcus pneumoniae (setting [5]), 0.78 µM; in the assay with Streptococcus pyogenes (setting [8]) it was 0.39 µM. The MIC in the assay on Escherichia coli (K12, read-out: Eco MIC) was 50 µM; with Haemophilus influenzae (setting [9]), 0.78 µM; in the assay with Klebsiella pneumoniae (setting [6]), greater than 200 µM; in the assay on Pseudomonas aeruginosa, greater than 200 µM. In assay [1], this molecule displayed an IC50 of 1300 nM.
In the case of `C[C@@H]1CN2c3c(cc4c(N5C(=O)OC[C@H]5c5cnccn5)noc4c3F)CC3(C(=O)NC(=O)NC3=O)[C@H]2[C@H](C)O1` [Example 61, (2R,4S,4aS)-11-Fluoro-2,4-dimethyl-8-((R)-2-oxo-4-(pyrazin-2-yl)oxazolidin-3-yl)-2,4,4a,6-tetrahydro-1H,1′H-spiro[isoxazolo[4,5-g][1,4]oxazino[4,3-a]quinoline-5,5′-pyrimidine]-2′,4′,6′(3′H)-trione], the MIC in the assay with Staphylococcus aureus (setting [7]) was 0.78 µM; in the assay with Staphylococcus aureus (setting [2]) it was 3.1 µM; in the assay with Staphylococcus aureus (setting [3]), 1.6 µM; in the assay on Streptococcus pneumoniae (setting [4]) it was 0.78 µM; in the assay with Streptococcus pneumoniae (setting [5]) it was 0.78 µM; in the assay on Streptococcus pyogenes (setting [8]) it was 0.78 µM. Moreover, the MIC was 100 µM with Escherichia coli (K12, read-out: Eco MIC); less than 0.2 µM in the assay on Haemophilus influenzae (setting [9]); greater than 200 µM with Klebsiella pneumoniae (setting [6]); greater than 200 µM with Pseudomonas aeruginosa. The same molecule gave a concentration for half-maximal inhibition (IC50) in assay [1] of 340 nM.
With `C[C@@H]1CN2c3c(cc4c(N5C(=O)OC[C@@H]5c5ccncc5)noc4c3F)CC3(C(=O)NC(=O)NC3=O)[C@H]2[C@H](C)O1` [Example 58, (2R,4S,4aS)-11-fluoro-2,4-dimethyl-8-((S)-2-oxo-4-(pyridin-4-yl)oxazolidin-3-yl)-2,4,4a,6-tetrahydro-1H,1′H-spiro[isoxazolo[4,5-g][1,4]oxazino[4,3-a]quinoline-5,5′-pyrimidine]-2′,4′,6′(3′H)-trione], the MIC with Staphylococcus aureus (setting [7]) came out at 12 µM; with Staphylococcus aureus (setting [2]), 50 µM; in the assay with Staphylococcus aureus (setting [3]), 50 µM; in the assay on Streptococcus pneumoniae (setting [4]), 50 µM; with Streptococcus pneumoniae (setting [5]) it was 25 µM; with Streptococcus pyogenes (setting [8]) it was 12 µM. Besides, the MIC with Escherichia coli (K12, read-out: Eco MIC) is greater than 200 µM; in the assay on Haemophilus influenzae (setting [9]) it was 6.2 µM; in the assay on Klebsiella pneumoniae (setting [6]), greater than 200 µM; in the assay with Pseudomonas aeruginosa, greater than 200 µM. This molecule also displayed an IC50 in assay [1] of 1500 nM.
As to `C[C@@H]1CN2c3c(cc4c(N5C(=O)OC[C@@H]5CC#N)noc4c3F)CC3(C(=O)NC(=O)NC3=O)[C@H]2[C@H](C)O1` [Example 71, {(4S)-3-[(2R,4S,4aS)-11-Fluoro-2,4-dimethyl-2′,4′,6′-trioxo-1,1′,2,3′,4,4′,4a,6′-octahydro-2′H,6H-spiro[1,4-oxazino[4,3-a][1,2]oxazolo[4,5-g]quinoline-5,5′-pyrimidin]-8-yl]-2-oxo-1,3-oxazolidin-4-yl}acetonitrile], the MIC in the assay on Staphylococcus aureus (setting [7]) amounted to 3.1 µM; with Staphylococcus aureus (setting [2]), 6.2 µM; in the assay on Staphylococcus aureus (setting [3]), 3.1 µM; with Streptococcus pneumoniae (setting [4]), 1.6 µM; in the assay with Streptococcus pneumoniae (setting [5]) it was 1.6 µM; in the assay with Streptococcus pyogenes (setting [8]) it was 1.6 µM. Besides, the MIC is 50 µM in the assay on Escherichia coli (K12, read-out: Eco MIC); 1.6 µM with Haemophilus influenzae (setting [9]); greater than 200 µM in the assay with Klebsiella pneumoniae (setting [6]); greater than 200 µM in the assay on Pseudomonas aeruginosa. In addition, the half-inhibitory concentration (IC50) in assay [1] was 160 nM.
As to `CO[C@H](C)[C@H]1COC(=O)N1c1noc2c(F)c3c(cc12)CC1(C(=O)NC(=O)NC1=O)[C@H]1[C@H](C)O[C@H](C)CN31` [Example 59], the MIC in the assay on Staphylococcus aureus (setting [7]) came to 0.78 µM; in the assay with Staphylococcus aureus (setting [2]) it was 1.6 µM; in the assay with Staphylococcus aureus (setting [3]) it was 3.1 µM; in the assay on Streptococcus pneumoniae (setting [4]), 1.6 µM; in the assay with Streptococcus pneumoniae (setting [5]) it was 1.6 µM; with Streptococcus pyogenes (setting [8]) it was 1.6 µM. Besides, the MIC with Escherichia coli (K12, read-out: Eco MIC) was 100 µM; in the assay with Haemophilus influenzae (setting [9]), 1.6 µM; with Klebsiella pneumoniae (setting [6]), greater than 200 µM; in the assay on Pseudomonas aeruginosa it was greater than 200 µM. In addition, inhibition in assay [1] was half-maximal at 860 nM (IC50).
On to `C[C@@H]1CN2c3c(cc4c(N5C(=O)OC[C@H]5C)noc4c3F)CC3(C(=O)NC(=O)NC3=O)[C@H]2[C@H](C)O1` [Example 2, (2R,4S,4aS)-11-Fluoro-2,4-dimethyl-8-[(4R)-4-methyl-2-oxo-1,3-oxazolidin-3-yl]-1,2,4,4a-tetrahydro-2′H,6H-spiro[1,4-oxazino[4,3-a][1,2]oxazolo[4,5-g]quinoline-5,5′-pyrimidine]-2′,4′,6′(1′H,3′H)-trione], for which the MIC with Staphylococcus aureus (setting [7]) was determined as 3.1 µM; with Staphylococcus aureus (setting [2]), 12 µM; in the assay with Staphylococcus aureus (setting [3]), 6.2 µM; in the assay with Streptococcus pneumoniae (setting [4]), 12 µM; in the assay with Streptococcus pneumoniae (setting [5]) it was 3.1 µM; in the assay on Streptococcus pyogenes (setting [8]), 3.1 µM. In addition, the MIC is 100 µM with Escherichia coli (K12, read-out: Eco MIC); 1.6 µM with Haemophilus influenzae (setting [9]); greater than 200 µM with Klebsiella pneumoniae (setting [6]); greater than 200 µM in the assay on Pseudomonas aeruginosa. The same molecule had an IC50 in assay [1] of 2700 nM.
`C[C@@H]1CN2c3c(cc4c(N5C(=O)O[C@H](C)[C@@H]5C)noc4c3F)CC3(C(=O)NC(=O)NC3=O)[C@H]2[C@H](C)O1` [Example 23]: the MIC is 0.39 µM with Staphylococcus aureus (setting [7]); 0.78 µM with Staphylococcus aureus (setting [2]); 0.78 µM with Staphylococcus aureus (setting [3]); 0.78 µM with Streptococcus pneumoniae (setting [4]); 0.78 µM in the assay on Streptococcus pneumoniae (setting [5]); 0.39 µM with Streptococcus pyogenes (setting [8]). Moreover, the MIC is 6.2 µM in the assay with Escherichia coli (K12, read-out: Eco MIC); 0.39 µM in the assay on Haemophilus influenzae (setting [9]); 100 µM in the assay with Klebsiella pneumoniae (setting [6]); greater than 200 µM in the assay on Pseudomonas aeruginosa. In assay [1], half-maximal inhibition (IC50) required 520 nM.
As for `C[C@@H]1CN2c3c(cc4c(N5C(=O)OC[C@@H]5CCCF)noc4c3F)CC3(C(=O)NC(=O)NC3=O)[C@H]2[C@H](C)O1` [Example 30, (2R,4S,4aS)-11-Fluoro-8-((S)-4-(3-fluoropropyl)-2-oxooxazolidin-3-yl)-2,4-dimethyl-2,4,4a,6-tetrahydro-1H,1′H-spiro[isoxazolo[4,5-g][1,4]oxazino[4,3-a]quinoline-5,5′-pyrimidine]-2′,4′,6′(3′H)-trione], the MIC is less than 0.2 µM in the assay with Staphylococcus aureus (setting [7]); 0.78 µM with Staphylococcus aureus (setting [2]); 0.78 µM in the assay with Staphylococcus aureus (setting [3]); 0.39 µM in the assay with Streptococcus pneumoniae (setting [4]); 0.39 µM with Streptococcus pneumoniae (setting [5]); 0.39 µM in the assay on Streptococcus pyogenes (setting [8]). The MIC in the assay on Escherichia coli (K12, read-out: Eco MIC) was 25 µM; in the assay on Haemophilus influenzae (setting [9]), 0.39 µM; in the assay on Klebsiella pneumoniae (setting [6]) it was 200 µM; in the assay with Pseudomonas aeruginosa it was greater than 200 µM. Besides, the IC50 in assay [1] was determined as 500 nM.
